This is an account of results in patent US6362183B1, “Aromatic sulfonyl alpha-hydroxy hydroxamic acid compounds” (G. D. Searle & Company, priority 1997, dated 2002).

Common to all, as to assay: In vitro metalloprotease inhibition, fluorogenic peptide assay
Holding throughout (assay type): biochemical

The target in one test is T1, recombinant human MMP-1 (Homo sapiens, UniProt P03956).
T1 construct: made in house; host or cells: transfected HT-1080 cells
T1 sequence (P03956 100-469): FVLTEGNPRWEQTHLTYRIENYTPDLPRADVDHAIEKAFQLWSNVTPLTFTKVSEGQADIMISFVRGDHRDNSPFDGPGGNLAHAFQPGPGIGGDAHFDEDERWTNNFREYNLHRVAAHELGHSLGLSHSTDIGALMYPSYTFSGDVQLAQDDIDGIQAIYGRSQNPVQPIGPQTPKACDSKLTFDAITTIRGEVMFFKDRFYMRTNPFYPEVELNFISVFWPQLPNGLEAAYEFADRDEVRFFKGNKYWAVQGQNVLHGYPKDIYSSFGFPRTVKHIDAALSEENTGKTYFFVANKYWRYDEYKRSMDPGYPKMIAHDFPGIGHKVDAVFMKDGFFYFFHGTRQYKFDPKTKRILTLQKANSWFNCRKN
Conditions: for IC50: APMA-activated enzyme, MCA peptide substrate 4 μM, room temperature, pH 7.5; for inhibitory activity against MMP-1 (in words): discussion of Table 51. How it is done: (§1) Briefly, 4-aminophenylmercuric acetate (APMA) or trypsin activated MMPs were incubated with various concentrations of the inhibitor compound at room temperature for 5 minutes.
(§2) More specifically, recombinant human MMP-13 and MMP-1 enzymes were prepared in laboratories of the assignee. MMP-13 was expressed in baculovirus as a proenzyme, and purified first over a heparin agarose column and then over a chelating zinc chloride column. The proenzyme was activated by APMA for use in the assay. MMP-1 expressed in transfected HT-1080 cells was provided by Dr. Howard Welgus of Washington University, St. Louis, Mo. The enzyme was also activated using APMA and was then purified over a hydroxamic acid column.
(§3) MCA-ProLeuGlyLeuDpaAlaArgNH^2, wherein MCA is methoxycoumarin and Dpa is 3-(2,4-dinitrophenyl)-L-2,3-diaminopropionyl alanine.
(§4) The buffer used for assays contained 100 mM Tris-HCl, 100 mM NaCl, 10 mM CaCl2 and 0.05 percent polyethyleneglycol (23) lauryl ether at a pH value of 7.5.

Another test deals with T2, recombinant human MMP-13 (Homo sapiens, UniProt P45452).
T2 construct: made in house
Conditions: for IC50: APMA-activated enzyme, MCA peptide substrate 4 μM, room temperature, pH 7.5; for inhibitory activity against MMP-13 (in words): discussion of Table 51. Here is the method:
as §1, §2, §3, §4

For the next test, the target named is T3, MMP-2 (Homo sapiens, UniProt P08253).
T3 sequence (P08253 110-660): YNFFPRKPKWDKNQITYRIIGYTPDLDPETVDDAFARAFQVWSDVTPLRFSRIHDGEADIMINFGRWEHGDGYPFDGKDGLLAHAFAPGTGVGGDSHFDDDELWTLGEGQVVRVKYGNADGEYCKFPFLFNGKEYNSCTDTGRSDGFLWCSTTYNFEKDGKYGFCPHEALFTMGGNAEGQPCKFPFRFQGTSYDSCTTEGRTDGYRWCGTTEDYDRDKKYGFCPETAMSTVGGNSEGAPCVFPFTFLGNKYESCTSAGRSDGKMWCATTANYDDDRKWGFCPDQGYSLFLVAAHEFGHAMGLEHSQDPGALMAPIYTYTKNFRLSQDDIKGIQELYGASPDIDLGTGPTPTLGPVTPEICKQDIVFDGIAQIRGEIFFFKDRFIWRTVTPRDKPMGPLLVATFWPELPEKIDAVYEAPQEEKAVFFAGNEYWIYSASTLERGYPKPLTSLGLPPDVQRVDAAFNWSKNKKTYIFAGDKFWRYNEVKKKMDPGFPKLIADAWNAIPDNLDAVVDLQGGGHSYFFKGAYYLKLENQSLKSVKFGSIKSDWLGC
Conditions: for IC50: MCA peptide substrate 4 μM, room temperature, pH 7.5. Here is the method: as §1, §3, §4

Another test addresses MMP-9 (Homo sapiens, UniProt P14780). The following applies: MCA peptide substrate 4 μM, room temperature, pH 7.5. How it is done: as §1, §3, §4

Sequence of MMP-9 (P14780 107-707 limits assumed, species assumed): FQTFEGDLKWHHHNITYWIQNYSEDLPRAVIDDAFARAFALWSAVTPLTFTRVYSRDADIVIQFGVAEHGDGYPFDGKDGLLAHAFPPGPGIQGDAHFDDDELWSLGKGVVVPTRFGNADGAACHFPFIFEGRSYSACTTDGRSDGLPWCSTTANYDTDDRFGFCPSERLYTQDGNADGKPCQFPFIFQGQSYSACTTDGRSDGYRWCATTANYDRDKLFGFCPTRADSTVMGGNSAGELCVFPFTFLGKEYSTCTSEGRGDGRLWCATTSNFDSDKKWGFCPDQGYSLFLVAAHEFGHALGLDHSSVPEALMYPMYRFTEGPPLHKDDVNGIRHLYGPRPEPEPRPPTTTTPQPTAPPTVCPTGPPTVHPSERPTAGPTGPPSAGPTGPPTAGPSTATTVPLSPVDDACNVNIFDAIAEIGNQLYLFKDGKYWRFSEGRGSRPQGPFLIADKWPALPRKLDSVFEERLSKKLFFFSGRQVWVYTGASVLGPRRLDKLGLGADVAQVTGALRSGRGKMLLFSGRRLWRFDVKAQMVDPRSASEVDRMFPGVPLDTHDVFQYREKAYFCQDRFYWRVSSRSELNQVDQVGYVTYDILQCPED

Turning to `COCC(O)(CS(=O)(=O)c1ccc(Oc2ccccc2)cc1)C(=O)NO` (centres unmarked) [Example 6, N,2-dihydroxy-2-(methoxymethyl)-3-[(4-phenoxyphenyl)sulfonyl]propanamide], the IC50 at recombinant human MMP-1 is 8000 nM; at recombinant human MMP-13, 30 nM; against MMP-2, 14.8 nM.

For the compound `COc1ccc(S(=O)(=O)CC(O)C(=O)NO)cc1` (centres unmarked) [Example 8, N,2-dihydroxy-3-[(4-methoxyphenyl)sulfonyl]propanamide], at recombinant human MMP-1, the IC50 is over 10000 nM and the “inhibitory activity against MMP-1 (in words)” value was “relatively inactive”. Further, at recombinant human MMP-13, the IC50 amounted to 200 nM and the “inhibitory activity against MMP-13 (in words)” value was “only slightly better”.

Take `O=C(NO)[C@@H](O)CS(=O)(=O)c1ccc(Oc2ccccc2)cc1` [Example 10, (R)—N,2-dihydroxy-3-[(4-phenoxyphenyl)sulfonyl]propanamide]: the IC50 amounted to 4000 nM on recombinant human MMP-1, 1 nM on recombinant human MMP-13, 0.4 nM against MMP-2 and 18 nM against MMP-9.

For the compound `CCCCCc1ccc(C(=O)Nc2ccc(S(=O)(=O)CC(C)(O)C(=O)NO)cc2)cc1` (centres unmarked) [Example 14, N-[4-[[2-hydroxy-3-(hydroxyamino)-2-methyl-3-oxopropyl]sulfonyl]phenyl]pentylbenzamide], the IC50 was over 10000 nM at recombinant human MMP-1, 0.5 nM at recombinant human MMP-13 and under 0.1 nM at MMP-2.

As to `CC(O)(CS(=O)(=O)c1ccc(NC(=O)Nc2ccccc2)cc1)C(=O)NO` (centres unmarked) [Example 15, N,2-dihydroxy-2-methyl-3-[[4-[((phenylamino)carbonyl)amino]phenyl]sulfonyl]propanamide], the IC50 was over 10000 nM on recombinant human MMP-1, 3200 nM at recombinant human MMP-13 and 87 nM against MMP-2.

Take `CC(C)CC(=O)Nc1ccc(S(=O)(=O)CC(C)(O)C(=O)NO)cc1` (centres unmarked) [Example 17, N-[4-[[2-hydroxy-3-(hydroxyamino)-2-methyl-3-oxopropyl]sulfonyl]phenyl]-3-methylbutanamide]: the IC50 was over 10000 nM at recombinant human MMP-1, 900 nM at recombinant human MMP-13 and 400 nM at MMP-2.

Regarding `CC(O)(CS(=O)(=O)c1ccc(NC(=O)c2ccc(Cl)cc2)cc1)C(=O)NO` (centres unmarked) [Example 18], the results for the IC50 on recombinant human MMP-1, on recombinant human MMP-13 and at MMP-2 were over 10000 nM, 13 nM and 0.5 nM, respectively.

Turning to `Cc1ccccc1NC(=O)Nc1ccc(S(=O)(=O)CC(C)(O)C(=O)NO)cc1` (centres unmarked) [Example 19, N,2-dihydroxy-2-methyl-3-[[4-[[[(2-methylphenyl)amino]carbonyl]amino]phenyl]sulfonyl]propanamide], the IC50 is over 10000 nM on recombinant human MMP-1, 10000 nM on recombinant human MMP-13 and 2600 nM against MMP-2.

Consider `Cc1cccc(NC(=O)Nc2ccc(S(=O)(=O)CC(C)(O)C(=O)NO)cc2)c1` (centres unmarked) [Example 20, N,2-dihydroxy-2-methyl-3-[[4-[[[(3-methylphenyl)amino]carbonyl]amino]phenyl]sulfonyl]propanamide], for which the results for the IC50 on recombinant human MMP-1, at recombinant human MMP-13 and against MMP-2 were over 10000 nM, 6600 nM and 300 nM, respectively.

On to `Cc1ccc(NC(=O)Nc2ccc(S(=O)(=O)CC(C)(O)C(=O)NO)cc2)cc1` (centres unmarked) [Example 21, N,2-dihydroxy-2-methyl-3-[[4-[[[(4-methylphenyl)amino]carbonyl]amino]phenyl]sulfonyl]propanamide], for which the IC50 on recombinant human MMP-1 was over 10000 nM; at recombinant human MMP-13, 3600 nM; on MMP-2 it was 34 nM.

For the compound `CC(O)(CS(=O)(=O)c1ccc(NC(=O)c2ccc(Cl)nc2)cc1)C(=O)NO` (centres unmarked) [Example 22, 6-chloro-N-(4-[[2-hydroxy-3-(hydroxyamino)-2-methyl-3-oxopropyl]sulfonyl]phenyl]-3-pyridinecarboxamide], the IC50 at recombinant human MMP-1 was over 10000 nM; on recombinant human MMP-13, 280 nM; against MMP-2, 6.7 nM.

For the compound `CCCCCCCOc1ccc(C(=O)Nc2ccc(S(=O)(=O)CC(C)(O)C(=O)NO)cc2)cc1` (centres unmarked) [Example 24, 4-(heptyloxy)-N-[4-[[2-hydroxy-3-(hydroxyamino)-2-methyl-3-oxopropyl]sulfonyl]phenyl]benzamide], at recombinant human MMP-1, the IC50 was over 10000 nM and the “inhibitory activity against MMP-1 (in words)” value is listed as “lower than could be measured in the assay”. On recombinant human MMP-13, the IC50 was under 0.1 nM and the “inhibitory activity against MMP-13 (in words)” value is “greater than could be measured in the assay”. For the same compound, at MMP-2, the IC50 was under 0.1 nM. Besides, at MMP-2 (discussion of Table 51), the “inhibitory activity against MMP-2 (in words)” value is “greater than could be measured in the assay”.

As for `CCCCOc1ccc(C(=O)Nc2ccc(S(=O)(=O)CC(C)(O)C(=O)NO)cc2)cc1` (centres unmarked) [Example 25, 4-butoxy-N-[4-[[2-hydroxy-3-(hydroxyamino)-2-methyl-3-oxopropyl]sulfonyl]phenyl]benzamide], the results for the half-maximal inhibitory concentration (IC50) on recombinant human MMP-1, at recombinant human MMP-13 and against MMP-2 were over 10000 nM, 1.2 nM and 0.2 nM, respectively.

For `CCCc1ccc(C(=O)Nc2ccc(S(=O)(=O)CC(C)(O)C(=O)NO)cc2)cc1` (centres unmarked) [Example 26, N-[4-[[2-hydroxy-3-(hydroxyamino)-2-methyl-3-oxopropyl]-sulfonyl]phenyl]4-propylbenzamide], the IC50 at recombinant human MMP-1 is over 10000 nM; on recombinant human MMP-13 it was 1.2 nM; against MMP-2 it was 0.1 nM.

Take `COc1cccc(C(=O)Nc2ccc(S(=O)(=O)CC(C)(O)C(=O)NO)cc2)c1` (centres unmarked) [Example 27]: the values for the IC50 at recombinant human MMP-1, at recombinant human MMP-13 and against MMP-2 were over 10000 nM, 666 nM and 10 nM, respectively.

Take `CCCCc1ccc(C(=O)Nc2ccc(S(=O)(=O)CC(C)(O)C(=O)NO)cc2)cc1` (centres unmarked) [Example 28, 4-butyl-N-[4-[[2-hydroxy-3-(hydroxyamino) -2-methyl-3-oxopropyl]-sulfonyl]phenyl]benzamide]: the IC50 at recombinant human MMP-1 is over 10000 nM; on recombinant human MMP-13 it was 0.8 nM; at MMP-2, under 0.1 nM.

`CC(O)(CS(=O)(=O)c1ccc(NC(=O)c2cccc(F)c2)cc1)C(=O)NO` (centres unmarked) [Example 29]: the IC50 is over 10000 nM at recombinant human MMP-1, 80 nM at recombinant human MMP-13 and 1.8 nM on MMP-2.

Take `Cc1cccc(C(=O)Nc2ccc(S(=O)(=O)CC(C)(O)C(=O)NO)cc2)c1` (centres unmarked) [Example 30, N-[4-[[2-hydroxy-3-(hydroxyamino)-2-methyl-3-oxopropyl]sulfonyl]phenyl]-3-methylbenzamide]: the IC50 at recombinant human MMP-1 is over 10000 nM; on recombinant human MMP-13, 316 nM; on MMP-2, 20 nM.

As to `CC(O)(CS(=O)(=O)c1ccc(NC(=O)c2cccc(Cl)c2)cc1)C(=O)NO` (centres unmarked) [Example 31, 3-chloro-N-[4-[[2-hydroxy-3-(hydroxyamino)-2-methyl-3-oxopropyl]sulfonyl]phenyl]benzamide], the IC50 at recombinant human MMP-1 was over 10000 nM; at recombinant human MMP-13, 600 nM; on MMP-2 it was 37.2 nM.

Consider `CC(O)(CS(=O)(=O)c1ccc(NC(=O)c2ccc(F)c(F)c2)cc1)C(=O)NO` (centres unmarked) [Example 32, 3,4-difluoro-N-[4-[[2-hydroxy-3-(hydroxyamino)-2-methyl-3-oxopropyl]sulfonyl]phenyl]benzamide], for which the IC50 on recombinant human MMP-1 is over 10000 nM; on recombinant human MMP-13, 80 nM; against MMP-2 it was 1.6 nM.

On to `CC(O)(CS(=O)(=O)c1ccc(NC(=O)c2cccc([N+](=O)[O-])c2)cc1)C(=O)NO` (centres unmarked) [Example 33], for which the concentration for half-maximal inhibition (IC50) at recombinant human MMP-1 is over 10000 nM; at recombinant human MMP-13, 1600 nM; against MMP-2 it was 50 nM.

As for `CC(O)(CS(=O)(=O)c1ccc(NC(=O)c2cccc(NCCCCO)c2)cc1)C(=O)NO` (centres unmarked) [Example 34], the results for the IC50 at recombinant human MMP-1, at recombinant human MMP-13 and against MMP-2 were over 10000 nM, 1600 nM and 32.7 nM, respectively.

For `CC(O)(CS(=O)(=O)c1ccc(NC(=O)c2cccc(N)c2)cc1)C(=O)NO` (centres unmarked) [Example 35, 3-amino-N-[4-[[2-hydroxy-3-(hydroxyamino)-2-methyl-3-oxopropyl]-sulfonyl]phenyl]benzamide], the IC50 at recombinant human MMP-1 was over 10000 nM; at recombinant human MMP-13 it was 290 nM; at MMP-2, 6.7 nM.
